{"source": "PubChem BioAssay AID1259409", "about": "(Chemical Carcinogenesis Research Information System (CCRIS), 2018)", "origin": "cited, not measured here", "test_system": "rodent chemically induced tumor inhibition, incidence and multiplicity", "assay": "CCRIS tumor inhibitor studies", "conditions": "Promoter: NONE USED", "text": "The CCRIS database contains chemical records with carcinogenicity, mutagenicity, tumor promotion, and tumor inhibition test results. It was developed by the National Cancer Institute (NCI). Data are derived from studies cited in primary journals, current awareness tools, NCI reports, and other sources. Test results have been reviewed by experts in carcinogenesis and mutagenesis.\nCCRIS provides historical information from the years 1985 - 2011. It is no longer updated.\nThis is an archive assay for CCRIS tumor inhibitor studies.", "data": [{"smiles": "CCCCCCCc1c(O)cc(CC=C(C)C)c(O)c1C=O", "values": [{"measurement": "tumour outcome (control, treated, inhibition, significance)", "setting": "Carcinogen: AZOXYMETHANE, 25843-45-2, Dose [Inhibitor]: 0, 0.02% IN DIET IN WK 1-3 OF STUDY FOLLOWED BY BASAL DIET FOR DURATION OF STUDY (STUDY DURATION: 1 YR), Route [Inhibitor]: ORAL, Species: RAT, Strain/Sex: F344/MALE, Target Tissue: Type of Lesion: LARGE INTESTINE: ADENOCARCINOMA, Dose [Carcinogen]: 15 MG/KG BW 1/WK IN WK 1 AND 2 OF STUDY", "result": "13/27 (48%), 6/30 (20%), 58%, not significant"}, {"measurement": "tumour outcome (control, treated, inhibition, significance)", "setting": "Carcinogen: AZOXYMETHANE, 25843-45-2, Dose [Inhibitor]: 0, 0.02% IN DIET IN WK 1-3 OF STUDY FOLLOWED BY BASAL DIET FOR DURATION OF STUDY (STUDY DURATION: 1 YR), Route [Inhibitor]: ORAL, Species: RAT, Strain/Sex: F344/MALE, Target Tissue: Type of Lesion: LARGE INTESTINE: ADENOMA, Dose [Carcinogen]: 15 MG/KG BW 1/WK IN WK 1 AND 2 OF STUDY", "result": "6/27 (22%), 4/30 (13%), 41%, not significant"}, {"measurement": "tumour outcome (control, treated, inhibition, significance)", "setting": "Carcinogen: AZOXYMETHANE, 25843-45-2, Dose [Inhibitor]: 0, 0.02% IN DIET IN WK 1-3 OF STUDY FOLLOWED BY BASAL DIET FOR DURATION OF STUDY (STUDY DURATION: 1 YR), Route [Inhibitor]: ORAL, Species: RAT, Strain/Sex: F344/MALE, Target Tissue: Type of Lesion: SMALL INTESTINE: ADENOCARCINOMA, Dose [Carcinogen]: 15 MG/KG BW 1/WK IN WK 1 AND 2 OF STUDY", "result": "6/27 (22%), 5/30 (17%), 23%, not significant"}]}, {"smiles": "C=C(C)C1CC=C(C)C(O)C1", "note": "(configuration not stated)", "values": [{"measurement": "tumour outcome (control, treated, inhibition, significance)", "setting": "Carcinogen: 7,12-DIMETHYLBENZ[A]ANTHRACENE, 57-97-6, Dose [Inhibitor]: 0, 1% IN DIET FOR 3 WK BEGINNING 2 WK PRIOR TO CARCINOGEN DOSE (STUDY DURATION: 20 WK), Route [Inhibitor]: ORAL, Species: RAT, Strain/Sex: WISTAR/FEMALE, Target Tissue: Type of Lesion: MAMMARY GLAND: CARCINOMA, Dose [Carcinogen]: 50 MG/KG IN SESAME OIL ONCE", "result": "98%, 92%, 6%, not significant"}]}, {"smiles": "O=C1C=CC(=O)O1", "note": "(tested in a mixture with another compound)", "values": [{"measurement": "tumour outcome (control, treated, inhibition, significance)", "setting": "Carcinogen: N-BUTYL-N-(4-HYDROXYBUTYL)NITROSAMINE, 3817-11-6, Dose [Inhibitor]: 12.5 MG/KG IN 4 WK CYCLES OF 1/WK FOR 3 WK AND 1 WK REST STARTING 1 WK AFTER CARCINOGEN ADMINISTRATION THROUGH END OF ST, Route [Inhibitor]: INTRAPERITONEAL, Species: MOUSE, Strain/Sex: BDF1/MALE, Target Tissue: Type of Lesion: URINARY BLADDER: TRANSITIONAL CELL CARCINOMA, Dose [Carcinogen]: 7.5 MG 1/WK FOR 8 WK", "result": "19/50 (38%), 14/50 (28%), 26%, not significant"}, {"measurement": "tumour outcome (control, treated, inhibition, significance)", "setting": "Carcinogen: N-BUTYL-N-(4-HYDROXYBUTYL)NITROSAMINE, 3817-11-6, Dose [Inhibitor]: 12.5 MG/KG IN 4 WK CYCLES OF 3 WK DOSE (1 DOSE/WK) AND 1 WK REST STARTING 1 WK AFTER CARCINOGEN DOSE THROUGH END OF STUD, Route [Inhibitor]: INTRAPERITONEAL, Species: MOUSE, Strain/Sex: DBF1/MALE, Target Tissue: Type of Lesion: URINARY BLADDER: TRANSITIONAL CELL CARCINOMA, Dose [Carcinogen]: 7.5 MG 1/WK FOR 8 WK", "result": "19/50 (38%), 14/50 (28%), 26%, not significant"}, {"measurement": "tumour outcome (control, treated, inhibition, significance)", "setting": "Carcinogen: N-BUTYL-N-(4-HYDROXYBUTYL)NITROSAMINE, 3817-11-6, Dose [Inhibitor]: 25 MG/KG IN 4 WK CYCLES OF 1/WK FOR 3 WK AND 1 WK REST STARTING 1 WK AFTER CARCINOGEN ADMINISTRATION THROUGH END OF STUD, Route [Inhibitor]: INTRAPERITONEAL, Species: MOUSE, Strain/Sex: BDF1/MALE, Target Tissue: Type of Lesion: URINARY BLADDER: TRANSITIONAL CELL CARCINOMA, Dose [Carcinogen]: 7.5 MG 1/WK FOR 8 WK", "result": "19/50 (38%), 7/46 (15%), 61%, p<0.05"}, {"measurement": "tumour outcome (control, treated, inhibition, significance)", "setting": "Carcinogen: N-BUTYL-N-(4-HYDROXYBUTYL)NITROSAMINE, 3817-11-6, Dose [Inhibitor]: 25 MG/KG IN 4 WK CYCLES OF 3 WK DOSE (1 DOSE/WK) AND 1 WK REST STARTING 1 WK AFTER CARCINOGEN DOSE THROUGH END OF STUDY, Route [Inhibitor]: INTRAPERITONEAL, Species: MOUSE, Strain/Sex: DBF1/MALE, Target Tissue: Type of Lesion: URINARY BLADDER: TRANSITIONAL CELL CARCINOMA, Dose [Carcinogen]: 7.5 MG 1/WK FOR 8 WK", "result": "19/50 (38%), 7/46 (15%), 61%, p<0.05"}, {"measurement": "tumour outcome (control, treated, inhibition, significance)", "setting": "Carcinogen: N-METHYL-N-NITROSOUREA, 684-93-5, Dose [Inhibitor]: 12.5 MG/KG IN 4 WK CYCLES OF 1/WK FOR 3 WK AND 1 WK REST STARTING 7 D AFTER CARCINOGEN ADMINISTRATION THROUGH END OF STU, Route [Inhibitor]: INTRAPERITONEAL, Species: RAT, Strain/Sex: SPRAGUE-DAWLEY/FEMALE, Target Tissue: Type of Lesion: MAMMARY GLAND: ADENOCARCINOMA, Dose [Carcinogen]: 20 MG/KG BW ONCE", "result": "64%, 52%, 19%, not significant"}, {"measurement": "tumour outcome (control, treated, inhibition, significance)", "setting": "Carcinogen: N-METHYL-N-NITROSOUREA, 684-93-5, Dose [Inhibitor]: 12.5 MG/KG IN 4 WK CYCLES OF 3 WK DOSE (1 DOSE/WK) AND 1 WK REST STARTING 7 D AFTER CARCINOGEN DOSE THROUGH THE END OF S, Route [Inhibitor]: INTRAPERITONEAL, Species: RAT, Strain/Sex: SPRAGUE-DAWLEY/FEMALE, Target Tissue: Type of Lesion: MAMMARY GLAND: ADENOCARCINOMA, Dose [Carcinogen]: 20 MG/KG BW ONCE", "result": "64%, 52%, 19%, not significant"}, {"measurement": "tumour outcome (control, treated, inhibition, significance)", "setting": "Carcinogen: N-METHYL-N-NITROSOUREA, 684-93-5, Dose [Inhibitor]: 25 MG/KG IN 4 WK CYCLES OF 1/WK FOR 3 WK AND 1 WK REST STARTING 7 D AFTER CARCINOGEN ADMINISTRATION THROUGH END OF STUDY, Route [Inhibitor]: INTRAPERITONEAL, Species: RAT, Strain/Sex: SPRAGUE-DAWLEY/FEMALE, Target Tissue: Type of Lesion: MAMMARY GLAND: ADENOCARCINOMA, Dose [Carcinogen]: 20 MG/KG BW ONCE", "result": "64%, 50%, 22%, not significant"}, {"measurement": "tumour outcome (control, treated, inhibition, significance)", "setting": "Carcinogen: N-METHYL-N-NITROSOUREA, 684-93-5, Dose [Inhibitor]: 25 MG/KG IN 4 WK CYCLES OF 3 WK DOSE (1 DOSE/WK) AND 1 WK REST STARTING 7 D AFTER CARCINOGEN DOSE THROUGH END OF STUDY (, Route [Inhibitor]: INTRAPERITONEAL, Species: RAT, Strain/Sex: SPRAGUE-DAWLEY/FEMALE, Target Tissue: Type of Lesion: MAMMARY GLAND: ADENOCARCINOMA, Dose [Carcinogen]: 20 MG/KG BW ONCE", "result": "64%, 50%, 22%, not significant"}]}]}
